Columns and labels:
[1] = tested on: liver mitochondrial glycerol phosphate dehydrogenase (mGPDH) activity; experiment: Subacute study in normal rats, continuous infusion: liver mGPDH activity; assay type: in vivo, rats (Sprague-Dawley); conditions: continuous infusion 1 mg/kg/day
Text: (§1) Efficacy endpoints include serum cholesterol, liver mitochondrial glycerol phosphate dehydrogenase (mGPDH) activity and the expression of relevant liver genes (e.g., the LDL-receptor, apoB, cpt-1, spot14 and apoAI). Safety parameters include heart weight, heart rate, heart mGPDH activity, the expression and key genes involved in cardiac structure and function (e.g., Serca2, HCN2, Kv1.5, MHCα, MHCβ, Alpha1c), and standard plasma chemistry analysis (liver enzymes, electrolytes, creatinine). Endocrine effects are monitored by analysis of serum thyroid stimulating hormone (TSH). [Taylor et al., Mol Pharmacol 52(3): 542-7 (1997); Weitzel et al., Eur J Biochem 268(14):4095-4103 (2001)]
(§2) Methods: mGPDH activity was analyzed in isolated mitochondria using 2-(4-iodophenyl)-3-(4-nitrophenyl)-5-phenyl tetrazolium chloride as the terminal electron acceptor (Gardner R S, Analytical Biochemistry 59:272 (1974)). Commercially available GPDH was used in each assay as a standard (Sigma, St. Louis, Mo.). Changes in levels of mRNA for liver and heart genes are analyzed using reverse transcriptase followed by real-time PCR analysis. The analysis is performed using an iCycler instrument (Biorad) and appropriate primers by means of standard methodology [e.g., Schwab D A et al. (2000) Life Sciences 66: 1683-94]. The amounts of mRNA are normalized to an internal control, typically, cyclophilin. Serum TSH is measured using an enzyme immunoassay (EIA) kit designed for rat TSH (Amersham Pharmacia Biotech, Arlington Heights, Ill.).
(§3) Normal rats (Sprague-Dawley) were maintained on a standard diet. […] The compounds were brought up to an appropriate volume using PBS and BSA to maintain solubility within the pump. The compounds were chemically stable in the excipient at 37° C. for 7 days.
(§4) Values are expressed as percent of control. (Table 4)

heart mGPDH activity = experiment: Subacute study in normal rats, continuous infusion: heart mGPDH activity; assay type: in vivo, rats (Sprague-Dawley); conditions: continuous infusion 1 mg/kg/day
Text: as §1, §2, §3, §4

serum cholesterol = experiment: Subacute study in cholesterol-fed rats, IP: serum cholesterol; assay type: in vivo; conditions: IP once-a-day for seven days
[2] = Liver distribution following oral administration; assay type: in vivo; conditions: liver levels of Compound 7, normal rats, oral 10 mg/kg
Method: Liver levels of Compound 7 were assessed in normal rats following oral administration of the HepDirect™ or other prodrugs. The levels were used to estimate potential efficacy. Liver levels were assessed by LC-MS using the 363.3/63.0 peak area to estimate levels of Compound 7 generated by orally administered prodrugs.

liver triglycerides [3] = experiment: Hepatic triglyceride content in normal rats, chronic infusion; assay type: in vivo; conditions: normal rats chronically infused for 7 days
Method: (§5) Normal rats were chronically infused with Compound 7 for 7 days. Liver triglycerides were analyzed following lipid extraction by the Bligh Dyer method (Bligh E G and Dyer W J, A rapid method of total lipid extraction and purification. Can J Med. Sci. 1959 (August); 37(8):911-7, incorporated herein by reference). Total triglycerides were analyzed in the liver extracts by an enzymatic assay (Thermo Electron Corporation). Total lipid was normalized to initial liver weight and triglyceride content was normalized to liver weight. […] There was a 4% reduction in liver triglycerides for this group and the results were not statistically significant.

liver triglycerides [4] = experiment: Hepatic triglyceride content and steatosis in ZDF rats, oral; assay type: in vivo; conditions: orally 28 days
Method: as §5
In other experiments, Compound 7 was orally administered to ZDF rats for 28 days. Liver triglycerides were analyzed as described above. Total liver triglycerides were reduced in the treated animals 42% in the 2.5 mg/kg/d group. […] The hepatic steatosis is a well known and described phenomenon for the ZDF rat, and therefore not attributable to vehicle treatment.

plasma cholesterol = experiment: Cholesterol lowering in hypercholesterolemic rats; assay type: in vivo
[5] = tested on: thyroid stimulating hormone (TSH); experiment: Circulating TSH in rats (cholesterol-fed, ZDF); assay type: in vivo; conditions: ZDF rats, 50 mg/kg/d for 28 days
Method: as §2
Another concern with synthetic thyromimetics is the suppression of the endogenous thyroid axis. Thyroid homeostasis is maintained by the action of thyroid releasing hormone (TRH) and thyroid stimulating hormone (TSH). […] Although this particular side effect has been noted, it has typically been treated with less concern than the cardiac safety issues. […] Therefore previous investigators have measured TSH levels when testing synthetic thyromimetics and have used a 30% decrease of TSH as the denominator in their therapeutic index calculations. […] Therefore, both compounds suppress TSH as doses lower than that required to decrease circulating cholesterol. […] However, 0.2 mg/kg/d of Compound 18 in 28 day treated ZDF rats, decreased TSH levels greater than 90%.

[6] = Continuous infusion study in rats on a cholesterol-containing diet; assay type: in vivo; conditions: continuous infusion 1 mg/kg/day
Method: Screening for thyromimetic activity was performed in normal rats maintained on a cholesterol-containing diet. Compounds were administered by continuous infusion using an osmotic pump at 1 mg/kg/day.

[7] = Subacute study in cholesterol-fed rats, IP: heart weight and heart mGPDH activity
Method: The cholesterol-fed rat is an animal model of hypercholesterolemia generated by feeding the animals a diet with high cholesterol content.
Serum cholesterol values were assessed and the animals randomized into groups for treatment.

For `Cc1cc(OCP(=O)(O)O)cc(C)c1Cc1ccc(O)c(C(C)C)c1` [Compound 7, [3,5-dimethyl-4-(4′-hydroxy-3′-iso-propylbenzyl)phenoxy]methylphosphonic acid], the “Liver GPDH” value [1] was 399% of control, the “Heart GPDH” value (heart mGPDH activity) was 112% of control and the “doses that significantly decreased serum cholesterol” value (serum cholesterol) was 1 to 100 mg/kg/day. For the same molecule, the “Liver Levels (ug/g) (10 mg/kg@1.5 h)” value [2] was “Not Detected”, the “reduction in liver triglycerides” value (liver triglycerides [3]) was 64% and the “microvesicular steatosis, histologic analysis of liver sections” value (liver triglycerides [4]) was “dose dependent reduction in the microvesicular steatosis”. For the same molecule, the change in vivo at 0.2 mg/kg/day (plasma cholesterol; Rattus norvegicus, ip, delivered i.p (0.2 mg/kg/d), percentage change from pre-dose cholesterol, read-out: % Cholesterol Lowering) was -41.5%, the “efficacy in lowering cholesterol” value (plasma cholesterol; another experiment, hypercholesterolemic rats) was “efficacious” and the TSH versus vehicle [5] was “no statistically significant difference from vehicle”. The cholesterol lowering effects ([6]; day 7 and day 14) was “demonstrated cholesterol lowering effects”, the “cardiovascular parameters (heart rate, LV dP/dt, systolic and diastolic blood pressure)” value ([6]; day 7 or day 14) was “no changes in any of the cardiovascular parameters” and the cardiac hypertrophy ([7]; IP once-a-day for seven days) was “No cardiac hypertrophy was observed”. The “therapeutic window between efficacy (cholesterol lowering) and toxicity (cardiac hypertrophy, heart GPDH)” value ([7]; IP seven days) was 10- to 100 fold, the “heart GPDH activity” value ([7]; IP, 100 mg/kg) was “trend towards increased heart GPDH activity” and the adverse cardiac effects ([7]; IP, any dose) was “No adverse cardiac effects were observed”.

Source: US20090028925A1, “Novel Phosphinic Acid-Containing Thyromimetics” (priority 2005, published 2009)
